In the supplement of paper PMC10307832:

Experiments:
Assay in all cases: relative viability (nuclei count vs DMSO), 5 days (fraction); higher = more cells survive
[1] = compound: C1=CC=C2C(=C1)N=C(S2)C(C#N)C3=NC(=NC=C3)NCCC4=CN=CC=C4 + N=C(N)NC(=N)NCCc1ccccc1 [Phenformin] (partner 250 µM)
How it was run: (§1)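 Relative viability equals treated-well nuclei counts divided by vehicle-well nuclei counts. Counts came from 4× images of lung cancer cell lines grown in 1536-well plates for 5 days after pin-tool dosing on the day after seeding. Dosing used one drug alone or a fixed anchor-drug dose plus five library-drug doses (not always all listed) in √10 steps, and values are medians of duplicate plates.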

[2] = compound: C1=CC=C2C(=C1)N=C(S2)C(C#N)C3=NC(=NC=C3)NCCC4=CN=CC=C4 + Nc1ncn([C@H]2C[C@H](O)[C@@H](CO)O2)c(=O)n1 [Decitabine] (partner 2 µM)
How it was run: as §1

[3] = compound: C1=CC=C2C(=C1)N=C(S2)C(C#N)C3=NC(=NC=C3)NCCC4=CN=CC=C4 + CCNC(=O)c1noc(-c2cc(C(C)C)c(O)cc2O)c1-c1ccc(CN2CCOCC2)cc1 [Luminespib] (partner 0.01 µM)
How it was run: as §1

CUDC-101 + Pictilisib = compound: C#Cc1cccc(Nc2ncnc3cc(OC)c(OCCCCCCC(=O)NO)cc23)c1 [CUDC-101] + CS(=O)(=O)N1CCN(Cc2cc3nc(-c4cccc5[nH]ncc45)nc(N4CCOCC4)c3s2)CC1 [Pictilisib] (partner 1 µM)
How it was run: as §1

Cell Line	relative viability ([1]; first compound 0.005 µM)	relative viability ([1]; first compound 0.01581 µM)	relative viability ([1]; first compound 0.05 µM)	relative viability ([1]; first compound 0.1581 µM)	relative viability ([1]; first compound 0.5 µM)	relative viability ([2]; first compound 0.005 µM)	relative viability ([2]; first compound 0.01581 µM)	relative viability ([2]; first compound 0.05 µM)	relative viability ([2]; first compound 0.1581 µM)	relative viability ([2]; first compound 0.5 µM)	relative viability ([3]; first compound 0.005 µM)	relative viability ([3]; first compound 0.05 µM)	relative viability ([3]; first compound 0.1581 µM)	relative viability ([3]; first compound 0.5 µM)	relative viability (CUDC-101 + Pictilisib; first compound 0.01 µM)	relative viability (CUDC-101 + Pictilisib; first compound 0.03162 µM)	relative viability (CUDC-101 + Pictilisib; first compound 0.1 µM)	relative viability (CUDC-101 + Pictilisib; first compound 0.3162 µM)	relative viability (CUDC-101 + Pictilisib; first compound 1 µM)	relative viability ([3]; first compound 0.01581 µM)
HCC-44	0.271	0.183	0.211	0.296	0.162	0.956	0.933	0.971	0.978	1.01	0.988	1.03	1.05	0.951	0.593	0.63	0.531	0.69	0.366	
EKVX	0.245	0.239	0.243	0.273	0.23	0.152	0.286	0.309	0.329	0.23	0.953	0.868	0.673	0.842	0.452	0.403	0.412	0.355	0.215	0.837
NCI-H23	0.638	0.762	0.804	0.934	0.886		0.306	0.329	0.323	0.338	0.211	0.204	0.225	0.215	0.518	0.549	0.457	0.435	0.464	
NCI-H2347	0.417	0.334	0.322	0.611	0.455	0.638	0.634	0.556	0.683	0.654	0.811	0.381	0.488	0.363	0.711	0.658	0.794	0.436	0.569	0.355
SK-LU-1	0.323	0.593	0.529	0.608	0.475	0.496	0.762	0.68	0.727	0.558	0.185	0.187	0.223	0.197	0.703	0.597	0.628	0.427	0.381	0.194
A549	0.254		0.146	0.246	0.212	0.239	0.33	0.239	0.312	0.323					0.578	0.489	0.5	0.453	0.288	
LU99A	0.767	0.9	0.793	1.07	0.814	0.693	0.966		1	0.817	0.188	0.262	0.268	0.274	0.323	0.299	0.33	0.253	0.148	0.254
NCI-H596	0.557	0.848	0.687	0.921	0.801	0.711	1	1	0.919	0.985	0.627	0.875	1.07	0.764	0.403	0.382	0.422	0.384	0.68	1.02
